The text below walks through data of patent publication US20250099580A1, “TREATMENT OF GASTRIC CANCER AND/OR GASTROESOPHAGEAL JUNCTION CANCER” (AstraZeneca AB, priority 2023, published 2025).

For data set [1], the system named is resectable gastric and gastroesophageal junction cancer (GC/GEJC). The experiment in a line: Phase III study, interim analysis: surgery rate and R0 resection rate. It is filed as in vivo, human. How it is done:
A randomized, double-blind, placebo-controlled, multicenter, global Phase III study is conducted to assess the efficacy and safety of neoadjuvant-adjuvant durvalumab in combination with FLOT chemotherapy followed by adjuvant durvalumab monotherapy in patients with resectable GC/GEJC (i.e., radical-surgery eligible; >T2 N0-3 M0 or T0-4 N1-3 M0, per AJCC 8th edition). Patients were randomized in a 1:1 ratio to each of the following treatment arms (see FIGS. 1A and 1B): • Treatment Arm A: durvalumab 1500 mg on Day 1+FLOT on Days 1 and 15 of Q4W, both agents being adminstered for 4 cycles (2 cycles neoadjuvant+2 cycles adjuvant) followed by durvalumab 1500 mg on Day 1 Q4W for 10 additional cycles. • Treatment Arm B: placebo on Day 1+FLOT on Days 1 and 15 of Q4W, both agents being adminstered for 4 cycles (2 cycles neoadjuvant+2 cycles adjuvant) followed by placebo on Day 1 Q4W for 10 additional cycles. Surgical eligibility was assessed after neoadjuvant treatment and within 28 days prior to surgery. Surgery performed was gastrectomy or gastroesophagectomy with at least D1 lymphadenectomy (D2 lymphadenectomy recommended), as determined by the attending surgeon based on the intraoperative findings. Surgery was no earlier than 4 weeks but within 8 weeks after the last dose of neoadjuvant therapy. Patients must have recovered from all acute, reversible toxic effects from FLOT chemotherapy (excluding alopecia) and durvalumab (or placebo) that could potentially adversely impact the surgical procedure. Radical gastrectomy or gastroesophagectomy was performed for patients who met the surgery eligibility criteria by a board certified surgeon no earlier than 28 days (4 weeks) but within 56 days (8 weeks) after the last dose of neoadjuvant therapy. (Surgery >8 weeks after the last dose of neoadjuvant therapy may be permitted in consultation with the Sponsor). The recommendations of ESMO and NCCN for the resectability of GC/GEJC was followed. The surgery was be performed by a board certified gastric surgeon, who should perform gastric surgery as a prominent part of his/her practice. Surgery rate is analyzed using the same methodology as described for the pCR rate. R0 resection (margin-negative resection) rate is analyzed using the same methodology as described for the pCR rate. Surgery status is determined by a patient receiving gastrectomy or gastroesophagectomy (yes/no). Surgery rate is defined as the proportion of patients who undergo gastrectomy or gastroesophagectomy. R0 resection is determined by pathology review. R0 resection rate is defined as the proportion of patients who have a confirmed complete resection (i.e., received margin-negative surgery [R]) as assessed by pathology review. Interim analysis was conducted after all randomised patients underwent or were precluded from surgery. Superiority of pCR rate (α=0.1% [2-sided]) by central review was assessed. Surgical and safety outcomes were also assessed.

The nature of data set [2]: Phase III study, interim analysis: adverse events (safety analysis set). The format is in vivo. The protocol: (§1) A randomized, double-blind, placebo-controlled, multicenter, global Phase III study is conducted to assess the efficacy and safety of neoadjuvant-adjuvant durvalumab in combination with FLOT chemotherapy followed by adjuvant durvalumab monotherapy in patients with resectable GC/GEJC (i.e., radical-surgery eligible; >T2 N0-3 M0 or T0-4 N1-3 M0, per AJCC 8th edition). Patients were randomized in a 1:1 ratio to each of the following treatment arms (see FIGS. 1A and 1B): • Treatment Arm A: durvalumab 1500 mg on Day 1+FLOT on Days 1 and 15 of Q4W, both agents being adminstered for 4 cycles (2 cycles neoadjuvant+2 cycles adjuvant) followed by durvalumab 1500 mg on Day 1 Q4W for 10 additional cycles. • Treatment Arm B: placebo on Day 1+FLOT on Days 1 and 15 of Q4W, both agents being adminstered for 4 cycles (2 cycles neoadjuvant+2 cycles adjuvant) followed by placebo on Day 1 Q4W for 10 additional cycles.
An adverse event (AE) can therefore be any unfavorable and unintended sign (e.g., an abnormal laboratory finding), symptom (for example nausea, chest pain), or disease temporally associated with the use of a medicinal product, whether or not considered related to the medicinal product. The term AE is used to include both serious and non-serious AEs and can include a deterioration of a pre-existing medical occurrence. An AE may occur at any time, including run-in or washout periods, even if no study intervention has been administered.
Definitions of serious adverse event: A serious adverse event is an AE occurring during any study phase (i.e., run-in, treatment, washout, follow-up), that fulfils one or more of the following criteria: results in death, is immediately life-threatening, requires in-patient hospitalization or prolongation of existing hospitalization, results in persistent or significant disability or incapacity, is a congenital abnormality or birth defect, or is an important medical event that may jeopardize the patient or may require medical treatment to prevent one of the outcomes listed above.
Adverse events are coded using the most recent version of the Medical Dictionary for Regulatory Activities (MedDRA). AEs are presented for each treatment group by SOC and/or PT, covering number and percentage of subjects reporting at least one event and number of events where appropriate. […]
Safety and tolerability are assessed in terms of AEs (including SAEs), deaths, laboratory data, vital signs, ECGs, and exposure. […]
Interim analysis was conducted after all randomised patients underwent or were precluded from surgery. Superiority of pCR rate (α=0.1% [2-sided]) by central review was assessed. Surgical and safety outcomes were also assessed.

The subject of data set [3] is resectable gastric and gastroesophageal junction cancer (GC/GEJC). The experiment in a line: Phase III study, interim analysis: pathological response (pCR, pnCR, downstaging) by pathology review after neoadjuvant therapy. The format is in vivo, human.
Description: As used herein, the terms “combined pathological complete response/near-complete pathological response” or “pnCR” refer to the proportion of patients who only have single cells or rare small groups of cancer cells present in the resected specimens as determined by pathology review. […] The Ryan Scoring system is based on the ratio of residual cancer cells to the amount of fibrosis, and ranges from 1 (complete or near-complete response) to 3 (poor or not response to neoadjuvant therapy). As used herein, the terms “pathological complete response” or “pathological CR” or “pCR” refer to the proportion of patients who have no residual viable tumor in the resected specimens and as determined by pathology review. As used herein, the terms “event-free survival” or “EFS” refer the time from the date of randomization until the date of one of the following events, whichever occurs first: (1) first documented progression that precludes surgery or requires non-protocol therapy; (2) first evidence of documented recurrence of disease post-surgery in patients who had margin-negative surgery (R0); (3) first evidence of documented progression of disease post-surgery in patients with margin-positive surgery (R1/R2); or (4) death due to any cause. EFS is determined according to RECIST 1.1 per BICR assessment and/or locally by pathology testing.
as §1
Patients were stratified according to geographic region (Asia versus non-Asia), clinical lymph node status (positive versus negative), and PD-L1 expression status (TIP/TAP≥1% versus TIP/TAP<1%). Patients provided a tumor tissue sample at screening (newly acquired or archived sample <3 months old) to determine PD-L1 status using the Tumor and/or Immune Cell Positivity (TIP) scoring method (defined as proportion of tumor area occupied by tumor cells with membrane and immune cells with cytoplasmic/membrane PD-L1 staining at any intensity) by the Ventana SP263 PD-L1 immunohistochemistry (IHC) assay for stratification in which: TIP/TAP≥1% PD-L1 is considered as high, and TIP/TAP<1% PD-L1 is considered low.
Neoadjuvant therapy begins following completion of the screening period/randomization, and patients undergo resection surgery about 4 to about 8 weeks after the last dose of neoadjuvant therapy (surgery >8 weeks after the last dose of neoadjuvant therapy may be permitted). Adjuvant therapy begins about 4 weeks to about 12 weeks post-surgery (based on the patient's recovery period). In this Phase III study, the administration of durvalumab and a FLOT chemotherapy prior to surgery, followed by further administration of durvalumab and a FLOT chemotherapy after surgery, was investigated to determine if this therapy regimen can improve activity and therefore long-term clinical outcomes for patients with resectable GC and/or resectable GEJC.
Eligible patients received 1500 mg durvalumab or placebo on Day 1 in combination with FLOT chemotherapy on Days 1 and 15 for 2 cycles Q4W as neoadjuvant therapy. […]

The subject of data set [4] is tumor growth in a xenograft model. As to conditions: T-cell dependent mechanism; cited from earlier work.
The target of the next data set is PD-L1 (Homo sapiens, UniProt Q9NZQ7). As to conditions: in vitro; cited from earlier work.
Where [5] appears, read: Central Review (BICR), n = 474 per arm.
Setting [6] is: D + FLOT versus P + FLOT, p < 0.00001.
Setting [7] is: Investigator Assessment, n = 474 per arm.
The mark [8] stands for this setting: central assessment, n = 474 per arm.

Chain of PD-L1 (Q9NZQ7 19-290): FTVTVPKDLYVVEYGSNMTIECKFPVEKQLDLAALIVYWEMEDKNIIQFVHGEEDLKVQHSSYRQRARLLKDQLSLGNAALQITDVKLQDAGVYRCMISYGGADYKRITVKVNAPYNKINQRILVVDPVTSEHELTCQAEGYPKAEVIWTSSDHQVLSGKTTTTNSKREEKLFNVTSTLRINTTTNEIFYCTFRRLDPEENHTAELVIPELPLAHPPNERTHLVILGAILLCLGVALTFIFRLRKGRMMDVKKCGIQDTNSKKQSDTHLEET

Turning to “D + FLOT: durvalumab 1500 mg Day 1 Q4W plus FLOT (5-FU + leucovorin + oxaliplatin + docetaxel) Days 1 and 15, neoadjuvant-adjuvant, then durvalumab monotherapy”, the Surgery rate in data set [1] is 87%. In addition, the “Surgery performed, OR (95% CI)” value in data set [1] (D + FLOT versus P + FLOT) is listed as 1.23 (0.85-1.76). Besides, the “R0 resection, OR (95% CI)” value in data set [1] (D + FLOT versus P + FLOT, in pts with surgery) was 1.00 (0.68-1.48). For the same substance, the R0 resection rate in data set [1] (in patients who underwent surgery) was determined as 86%. For the same substance, the “R0 resection, %” value in data set [1] (in pts with surgery: D + FLOT n = 430, P + FLOT n = 422) was determined as 85.8%. In addition, the “Surgery performed, %” value in data set [1] (n = 474 per arm) turned out to be 86.7%. Further, in data set [2] (safety analysis set), the “AE Grade 3/4, (%)” value is recorded as “(68.6) %”; the “Grade 3/4 TRAE, (%)” value is given as “(57.9) %”; the “TRAE (treatment-related AE), (%)” value is listed as “(95.2) %”. The “AE, (%)” value in data set [2] (safety analysis set: D + FLOT n = 475, P + FLOT n = 469) is listed as “(98.9) %”. Besides, in data set [3], the “Combined pCR/near-complete pathological response (pnCR) rate” value is reported as 27% and the “increase in major response versus Placebo+FLOT chemotherapy alone” value is given as 12.4%. Further, the “pCR Difference in response rate (%)” value in data set [3] (Central Review (BICR), Durva + FLOT − Placebo + FLOT) is recorded as 12.0%. Also, in data set [3] (setting [5]), the “pCR N Responses” value amounted to 91 and the “pCR Response rate %” value was 19.2%. Also, the “pCR Odds ratio” value in data set [3] (Central Review (BICR), stratified Cochran-Mantel-Haenszel test, 2-sided p <0.00001) is 3.08. In data set [3] (setting [6]), the “pCR, OR (95% CI)” value is on record as 3.08 (2.03-4.67); p < 0.00001 and the “pCR/pnCR, OR (95% CI)” value was 2.19 (1.58-3.04); p < 0.00001. The “Major pathological response, Difference in response rate (%)” value in data set [3] (Durva + FLOT − Placebo + FLOT) worked out at 12.4%. Also, the “pCR (BICR) by subgroups” value in data set [3] (FIG. 2, odds ratio>1 favours durvalumab) is on record as “consistent across evaluable subgroups”. Also, in data set [3] (FIG. 3, odds ratio>1 favours durvalumab), the “major pathological response (complete or near-complete response BICR) by subgroups” value is “consistent across evaluable subgroups”. In data set [3] (Investigator Assessment, Durva + FLOT − Placebo + FLOT), the “pCR Difference in response rate (%)” value turned out to be 13.3%. Besides, in data set [3] (setting [7]), the “pCR N Responses” value was 103 and the “pCR Response rate %” value was found to be 21.7%. The “pCR Odds ratio” value in data set [3] (Investigator Assessment, stratified Cochran-Mantel-Haenszel test, 2-sided p <0.00001) was found to be 3.03. Further, in data set [3] (by central review), the “Downstaging, pN0” value is given as 47% and the “Downstaging, pT0” value is given as 21%. For the same substance, in data set [3] (setting [8]), the “Major pathological response (complete or near-complete) N Responses” value was found to be 127 and the “Major pathological response rate %” value is listed as 26.8%. In addition, the pCR rate in data set [3] (central review, interim analysis) is given as 19%. Besides, the “pCR/pnCR, %” value in data set [3] (n = 474 per arm) is recorded as 26.8%. In data set [3] (n = 474 per arm, interim analysis), the “pCR, %” value worked out at 19.2%. For the same substance, the “Major pathological response, Odds ratio” value in data set [3] (stratified Cochran-Mantel-Haenszel test, 2-sided p <0.00001) is listed as 2.19. Besides, the “increase in pCR rate from addition of durvalumab to FLOT” value in data set [3] (versus Placebo) is recorded as 12%. In addition, the “pCR odds ratio [OR]” value in data set [3] (versus Placebo, p<0.00001) is 3.08.
With “Durvalumab: antibody that selectively binds PD-L1 and blocks the binding of PD-L1 to the PD-1 and CD80 receptors”, the tumor growth entry in data set [4] is recorded as “inhibits tumor growth”. Further, the “effect on PD-L1-mediated suppression of human T-cell activation” value with PD-L1 was “relieve PD-L1-mediated suppression of human T-cell activation in vitro”.
